Measured values from PMC11794477 (Nature Communications, 2025).

Columns and labels:
[1] = target: T1, Fetal Liver Tyrosine Kinase 3 (FLT3) (Homo sapiens, UniProt P36888); experiment: SelectScreen kinase profiling at ATP Km, with dose-response follow-up; assay type: biochemical
T1 sequence (P36888 27-993): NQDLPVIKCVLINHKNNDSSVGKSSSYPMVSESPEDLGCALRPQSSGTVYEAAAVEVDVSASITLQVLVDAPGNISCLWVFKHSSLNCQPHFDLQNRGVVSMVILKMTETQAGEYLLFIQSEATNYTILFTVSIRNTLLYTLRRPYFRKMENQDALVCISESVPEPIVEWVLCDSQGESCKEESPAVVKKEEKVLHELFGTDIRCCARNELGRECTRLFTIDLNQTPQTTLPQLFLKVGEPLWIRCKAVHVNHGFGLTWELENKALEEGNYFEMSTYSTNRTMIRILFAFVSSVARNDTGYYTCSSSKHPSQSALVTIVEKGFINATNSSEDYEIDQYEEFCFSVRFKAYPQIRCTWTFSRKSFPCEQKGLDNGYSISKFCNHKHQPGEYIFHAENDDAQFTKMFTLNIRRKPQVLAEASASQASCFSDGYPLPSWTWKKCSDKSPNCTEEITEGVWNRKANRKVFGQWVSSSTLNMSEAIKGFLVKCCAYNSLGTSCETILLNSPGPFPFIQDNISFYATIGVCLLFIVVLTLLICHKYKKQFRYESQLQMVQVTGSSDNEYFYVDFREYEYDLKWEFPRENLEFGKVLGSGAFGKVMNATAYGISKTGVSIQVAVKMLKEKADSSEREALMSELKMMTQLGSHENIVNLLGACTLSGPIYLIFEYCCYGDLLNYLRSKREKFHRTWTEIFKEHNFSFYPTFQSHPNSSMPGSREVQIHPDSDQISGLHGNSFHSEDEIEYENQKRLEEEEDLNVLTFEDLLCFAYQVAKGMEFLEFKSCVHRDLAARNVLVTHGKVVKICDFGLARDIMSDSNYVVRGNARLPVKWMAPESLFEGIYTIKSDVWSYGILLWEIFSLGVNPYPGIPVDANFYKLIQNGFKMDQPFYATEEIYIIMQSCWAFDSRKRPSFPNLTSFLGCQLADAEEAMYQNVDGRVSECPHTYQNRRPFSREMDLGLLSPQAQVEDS

[2] = target: T2, OLIG2 (Homo sapiens, UniProt Q13516); assay type: cell-based
T2 sequence (Q13516 1-323): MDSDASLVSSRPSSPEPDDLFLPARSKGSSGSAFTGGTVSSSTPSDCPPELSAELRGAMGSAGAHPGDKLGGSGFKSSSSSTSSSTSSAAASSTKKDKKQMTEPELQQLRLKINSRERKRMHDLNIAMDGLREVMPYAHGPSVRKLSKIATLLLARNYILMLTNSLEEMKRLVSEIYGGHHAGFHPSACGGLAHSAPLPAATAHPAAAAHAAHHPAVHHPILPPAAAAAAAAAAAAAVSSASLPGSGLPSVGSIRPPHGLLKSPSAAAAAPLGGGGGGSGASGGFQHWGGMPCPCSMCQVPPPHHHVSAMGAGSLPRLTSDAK

[3] = target: T3, Discoidin Domain Receptor Tyrosine Kinase 2 (DDR2 N456S) (Homo sapiens, UniProt Q16832, N456S); experiment: SelectScreen kinase profiling at […] CT-179, ATP at Km; assay type: biochemical
T3 sequence (Q16832 22-855 N456S): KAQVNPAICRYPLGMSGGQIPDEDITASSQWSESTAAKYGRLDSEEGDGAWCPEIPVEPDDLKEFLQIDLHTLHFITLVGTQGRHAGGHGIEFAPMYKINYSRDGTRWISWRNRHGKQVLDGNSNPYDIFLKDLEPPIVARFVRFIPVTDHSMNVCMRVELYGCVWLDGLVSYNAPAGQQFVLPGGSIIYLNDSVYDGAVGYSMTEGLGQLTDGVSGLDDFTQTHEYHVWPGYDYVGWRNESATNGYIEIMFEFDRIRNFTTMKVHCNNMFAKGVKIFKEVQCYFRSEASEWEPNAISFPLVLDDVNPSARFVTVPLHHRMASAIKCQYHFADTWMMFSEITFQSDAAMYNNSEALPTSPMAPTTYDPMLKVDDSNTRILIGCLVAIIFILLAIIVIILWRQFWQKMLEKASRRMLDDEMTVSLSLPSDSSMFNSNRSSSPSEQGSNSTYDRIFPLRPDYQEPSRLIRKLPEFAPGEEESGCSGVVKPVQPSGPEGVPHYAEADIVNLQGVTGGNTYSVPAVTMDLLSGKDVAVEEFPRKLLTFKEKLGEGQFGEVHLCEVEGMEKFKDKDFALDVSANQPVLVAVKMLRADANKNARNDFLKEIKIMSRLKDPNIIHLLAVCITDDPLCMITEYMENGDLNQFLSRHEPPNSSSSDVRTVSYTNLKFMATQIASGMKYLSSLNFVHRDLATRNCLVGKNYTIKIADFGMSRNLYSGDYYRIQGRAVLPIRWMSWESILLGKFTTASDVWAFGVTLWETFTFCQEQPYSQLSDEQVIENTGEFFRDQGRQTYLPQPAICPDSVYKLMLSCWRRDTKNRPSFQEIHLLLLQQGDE

IC50 [1]: 20 nM
IC50 [2]: 1250 nM
% inhibition at 1 μM [3]: 87
SMILES: Cc1cc(NCCCN(C)C)nc(NC(=O)Nc2ccc(Cl)c(Cl)c2)n1 [CT-179]
